# From US6525001B1, “Substituted pyrimidine and pyridine herbicides” (Mid-American Commercialization Corporation, priority 1997, dated 2003)
# What was measured:
# Format in all cases: in vivo
# Parameters in all cases: key: 0 is no effect; 10 is complete control
# [1] = tested on: bedstraw (Galium aparine); assay: Test B pre-/postemergence; conditions: Postemergence
# Outline: (§1)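 Seeds were planted and sprayed preemergence, while plants at 2 to 18 cm (1- to 4-leaf stage) were sprayed postemergence at the same time, with test chemical in a non-phytotoxic solvent mixture containing surfactant. After twelve to sixteen days in a greenhouse, injury was rated visually against untreated controls on a 0–10 scale.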
# [2] = tested on: blackgrass (Alopecurus myosuroides); assay: Test B pre-/postemergence
# Outline: as §1
# [3] = tested on: broadleaf signalgrass (Brachiaria decumbens); assay: Test B pre-/postemergence
# Outline: as §1
# [4] = tested on: cocklebur (Xanthium strumarium); assay: Test B pre-/postemergence
# Outline: as §1
# corn (Zea mays) = assay: Test B pre-/postemergence
# Outline: as §1
# [5] = tested on: crabgrass (Digitaria sanguinalis); assay: Test B pre-/postemergence
# Outline: as §1
# [6] = tested on: giant foxtail (Setaria faberii); assay: Test B pre-/postemergence
# Outline: as §1
# [7] = tested on: momingglory (Ipomoea hederacea); assay: Test B pre-/postemergence
# Outline: as §1
# [8] = tested on: pigweed (Amaranthus retroflexus); assay: Test B pre-/postemergence
# Outline: as §1
# [9] = tested on: purple nutsedge (Cyperus rotundus); assay: Test B pre-/postemergence; conditions: Preemergence
# Outline: as §1
# rape (Brassica napus) = assay: Test B pre-/postemergence
# Outline: as §1
# soybean (Glycine max) = assay: Test B pre-/postemergence
# Outline: as §1
# [10] = tested on: sugar beet (Beta vulgaris); assay: Test B pre-/postemergence
# Outline: as §1
# [11] = tested on: velvetleaf (Abutilon theophrasti); assay: Test B pre-/postemergence
# Outline: as §1
# [12] = tested on: wheat (Triticum aestivum); assay: Test B pre-/postemergence
# Outline: as §1
# wild oat (Avena fatua) = assay: Test B pre-/postemergence
# Outline: as §1
# [13] = tested on: bamyardgrass (Echinochloa crus-galli); assay: Test B flood test
# Outline: (§2)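 Plants were grown to the 2-leaf stage before treatment with test chemical, then held in a greenhouse for twelve to sixteen days. Injury was visually rated against untreated controls on a 0–10 scale, where 0 is no effect and 10 is complete control.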
# [14] = tested on: duck salad (Heteranthera limosa); assay: Test B flood test
# Outline: as §2
# rice (Oryza sativa) = assay: Test B flood test
# Outline: as §2
# [15] = tested on: smallflower flatsedge (Cyperus difformis); assay: Test B flood test
# Outline: as §2
# [16] = Preemergence, Rate 62 g/ha, scale of 0 to 10
# [17] = Rate 62 g/ha, Postemergence (flood test)
# [18] = Rate 125 g/ha, Postemergence section (flood test species)
# [19] = Rate 250 g/ha, Postemergence (flood test species)
structure (smiles),measurement,setting,value
O=C(c1cccc(C(F)(F)F)c1)c1ccnc(-c2ccc(F)cc2F)n1 [Compound 76],Bedstraw plant response rating,[1]; Rate 62 g/ha,0
same,Bedstraw plant response rating,[1]; Rate 125 g/ha,0
same,"Plant response rating, Bedstraw",[1]; Rate 250 g/ha,0
same,"Plant response rating, Blackgrass",[2]; [16],0
same,Blackgrass plant response rating,"[2]; Rate 62 g/ha, Postemergence",0
same,Blackgrass plant response rating,"[2]; Rate 125 g/ha, Postemergence",0
same,"Plant response rating, Blackgrass","[2]; Rate 125 g/ha, Preemergence",0
same,"Plant response rating, Blackgrass","[2]; Rate 250 g/ha, Postemergence",0
same,"Plant response rating, Blackgrass","[2]; Rate 250 g/ha, Preemergence",0
same,B. signalgrass plant response rating,"[3]; Rate 62 g/ha, Postemergence",0
same,B. signalgrass plant response rating,"[3]; Rate 62 g/ha, Preemergence",0
same,B. signalgrass plant response rating,"[3]; Rate 125 g/ha, Postemergence",0
same,"Plant response rating, B. signalgrass","[3]; Rate 125 g/ha, Preemergence",0
same,"Plant response rating, B. signalgrass","[3]; Rate 250 g/ha, Postemergence",0
same,"Plant response rating, B. signalgrass","[3]; Rate 250 g/ha, Preemergence",0
same,"Plant response rating, Cocklebur",[4]; [16],0
same,Cocklebur plant response rating,"[4]; Rate 62 g/ha, Postemergence",1
same,Cocklebur plant response rating,"[4]; Rate 125 g/ha, Postemergence",3
same,"Plant response rating, Cocklebur","[4]; Rate 125 g/ha, Preemergence",0
same,"Plant response rating, Cocklebur","[4]; Rate 250 g/ha, Postemergence",4
same,"Plant response rating, Cocklebur","[4]; Rate 250 g/ha, Preemergence",0
same,"Plant response rating, Corn",corn (Zea mays); [16],0
same,Corn plant response rating,"corn (Zea mays); Rate 62 g/ha, Postemergence",1
same,Corn plant response rating,"corn (Zea mays); Rate 125 g/ha, Postemergence",1
same,"Plant response rating, Corn","corn (Zea mays); Rate 125 g/ha, Preemergence",0
same,"Plant response rating, Corn","corn (Zea mays); Rate 250 g/ha, Postemergence",1
same,"Plant response rating, Corn","corn (Zea mays); Rate 250 g/ha, Preemergence",0
same,"Plant response rating, Crabgrass",[5]; [16],0
same,Crabgrass plant response rating,"[5]; Rate 62 g/ha, Postemergence",0
same,Crabgrass plant response rating,"[5]; Rate 125 g/ha, Postemergence",0
same,"Plant response rating, Crabgrass","[5]; Rate 125 g/ha, Preemergence",0
same,"Plant response rating, Crabgrass","[5]; Rate 250 g/ha, Postemergence",1
same,"Plant response rating, Crabgrass","[5]; Rate 250 g/ha, Preemergence",0
same,"Plant response rating, Giant foxtail",[6]; [16],0
same,Giant foxtail plant response rating,"[6]; Rate 62 g/ha, Postemergence",0
same,Giant foxtail plant response rating,"[6]; Rate 125 g/ha, Postemergence",0
same,"Plant response rating, Giant foxtail","[6]; Rate 125 g/ha, Preemergence",0
same,"Plant response rating, Giant foxtail","[6]; Rate 250 g/ha, Postemergence",1
same,"Plant response rating, Giant foxtail","[6]; Rate 250 g/ha, Preemergence",0
same,"Plant response rating, Morningglory",[7]; [16],0
same,Morningglory plant response rating,"[7]; Rate 62 g/ha, Postemergence",0
same,Morningglory plant response rating,"[7]; Rate 125 g/ha, Postemergence",0
same,"Plant response rating, Morningglory","[7]; Rate 125 g/ha, Preemergence",0
same,"Plant response rating, Morningglory","[7]; Rate 250 g/ha, Postemergence",1
same,"Plant response rating, Morningglory","[7]; Rate 250 g/ha, Preemergence",0
same,"Plant response rating, Redroot pigweed",[8]; [16],0
same,Redroot pigweed plant response rating,"[8]; Rate 62 g/ha, Postemergence",1
same,Redroot pigweed plant response rating,"[8]; Rate 125 g/ha, Postemergence",1
same,"Plant response rating, Redroot pigweed","[8]; Rate 125 g/ha, Preemergence",0
same,"Plant response rating, Redroot pigweed","[8]; Rate 250 g/ha, Postemergence",2
same,"Plant response rating, Redroot pigweed","[8]; Rate 250 g/ha, Preemergence",0
same,"Plant response rating, Nutsedge","[9]; Rate 62 g/ha, scale of 0 to 10",0
same,"Plant response rating, Nutsedge",[9]; Rate 125 g/ha,0
same,"Plant response rating, Rape",rape (Brassica napus); [16],0
same,Rape plant response rating,"rape (Brassica napus); Rate 62 g/ha, Postemergence",1
same,Rape plant response rating,"rape (Brassica napus); Rate 125 g/ha, Postemergence",2
same,"Plant response rating, Rape","rape (Brassica napus); Rate 125 g/ha, Preemergence",0
same,"Plant response rating, Rape","rape (Brassica napus); Rate 250 g/ha, Postemergence",2
same,"Plant response rating, Rape","rape (Brassica napus); Rate 250 g/ha, Preemergence",0
same,"Plant response rating, Soybean",soybean (Glycine max); [16],0
same,Soybean plant response rating,"soybean (Glycine max); Rate 62 g/ha, Postemergence",0
same,Soybean plant response rating,"soybean (Glycine max); Rate 125 g/ha, Postemergence",0
same,"Plant response rating, Soybean","soybean (Glycine max); Rate 125 g/ha, Preemergence",0
same,"Plant response rating, Soybean","soybean (Glycine max); Rate 250 g/ha, Postemergence",1
same,"Plant response rating, Soybean","soybean (Glycine max); Rate 250 g/ha, Preemergence",0
same,"Plant response rating, Sugarbeets",[10]; [16],0
same,Sugarbeets plant response rating,"[10]; Rate 62 g/ha, Postemergence",1
same,Sugarbeets plant response rating,"[10]; Rate 125 g/ha, Postemergence",2
same,"Plant response rating, Sugarbeets","[10]; Rate 125 g/ha, Preemergence",0
same,"Plant response rating, Sugarbeets","[10]; Rate 250 g/ha, Postemergence",3
same,"Plant response rating, Sugarbeets","[10]; Rate 250 g/ha, Preemergence",0
same,"Plant response rating, Velvetleaf",[11]; [16],0
same,Velvetleaf plant response rating,"[11]; Rate 62 g/ha, Postemergence",0
same,Velvetleaf plant response rating,"[11]; Rate 125 g/ha, Postemergence",1
same,"Plant response rating, Velvetleaf","[11]; Rate 125 g/ha, Preemergence",0
same,"Plant response rating, Velvetleaf","[11]; Rate 250 g/ha, Postemergence",1
same,"Plant response rating, Velvetleaf","[11]; Rate 250 g/ha, Preemergence",0
same,"Plant response rating, Wheat",[12]; [16],0
same,Wheat plant response rating,"[12]; Rate 62 g/ha, Postemergence",0
same,Wheat plant response rating,"[12]; Rate 125 g/ha, Postemergence",0
same,"Plant response rating, Wheat","[12]; Rate 125 g/ha, Preemergence",0
same,"Plant response rating, Wheat","[12]; Rate 250 g/ha, Postemergence",0
same,"Plant response rating, Wheat","[12]; Rate 250 g/ha, Preemergence",0
same,"Plant response rating, Wild oats",wild oat (Avena fatua); [16],0
same,Wild oats plant response rating,"wild oat (Avena fatua); Rate 62 g/ha, Postemergence",0
same,Wild oats plant response rating,"wild oat (Avena fatua); Rate 125 g/ha, Postemergence",0
same,"Plant response rating, Wild oats","wild oat (Avena fatua); Rate 125 g/ha, Preemergence",0
same,"Plant response rating, Wild oats","wild oat (Avena fatua); Rate 250 g/ha, Postemergence",0
same,"Plant response rating, Wild oats","wild oat (Avena fatua); Rate 250 g/ha, Preemergence",0
same,Barnyardgrass plant response rating,[13]; [17],0
same,Barnyardgrass plant response rating,[13]; [18],0
same,"Plant response rating, Barnyardgrass",[13]; [19],0
same,Ducksalad plant response rating,[14]; [17],0
same,Ducksalad plant response rating,[14]; [18],0
same,"Plant response rating, Ducksalad",[14]; [19],0
same,Rice plant response rating,rice (Oryza sativa); [17],0
same,Rice plant response rating,rice (Oryza sativa); [18],0
same,"Plant response rating, Rice",rice (Oryza sativa); [19],0
same,S. Flatsedge plant response rating,[15]; [17],0
same,S. Flatsedge plant response rating,[15]; [18],0
same,"Plant response rating, S. Flatsedge",[15]; [19],0
